Assays:
Format in all cases: in vivo
[1] = test system: Myzus persicae (Green peach aphid); experiment: Example B6: Myzus persicae systemic activity, pea seedlings; settings: for mortality at 24 ppm: Myzus persicae, 144 h, test rate of 24 ppm, mixed ages, 6 days after placing seedlings into test solutions, read-out: mortality; for mortality at 1.5 ppm: Concentration 1.5 ppm, Myzus persicae (systemic, Example B6), read-out: Mortality (%)
Procedure: Roots of pea seedlings infested with an aphid population of mixed ages were placed directly into aqueous test solutions prepared from 10,000 DMSO stock solutions. The samples were assessed for mortality 6 days after placing seedlings into test solutions.

[2] = test system: Frankliniella occidentalis (Western Flower Thrips); experiment: Example B4: Frankliniella occidentalis feeding/contact activity, sunflower leaf discs; settings: foliar, 168 h, application rate of 200 ppm, mixed ages, 7 days after infestation
Procedure: Sunflower leaf discs were placed on agar in 24-well microtiter plates and sprayed with aqueous test solutions prepared from 10,000 DMSO stock solutions. After drying the leaf discs were infested with a Frankliniella population of mixed ages. The samples were assessed for mortality 7 days after infestation.

[3] = test system: Myzus persicae (Green peach aphid); experiment: Example B5: Myzus persicae feeding/contact activity, sunflower leaf discs; settings: foliar; for mortality at 200 ppm: Myzus persicae, 144 h, application rate of 200 ppm, mixed ages, 6 days after infestation, read-out: mortality; for mortality at 12.5 ppm: Concentration 12.5 ppm, Myzus persicae (feeding/contact, Example B5), read-out: Mortality (%)
Procedure: Sunflower leaf discs were placed onto agar in a 24-well microtiter plate and sprayed with aqueous test solutions prepared from 10,000 ppm DMSO stock solutions. After drying, the leaf discs were infested with an aphid population of mixed ages. The samples were assessed for mortality 6 days after infestation.

[4] = test system: Diabrotica Balteata (Corn Root Worm); experiment: Example B2: Diabrotica balteata, maize sprouts, L2 larvae; settings: for percent effect (mortality or growth inhibition) at 200 ppm: Diabrotica balteata, 96 h, application rate of 200 ppm, L2 larvae, 4 days after infestation, read-out: effect in at least one of the two categories (mortality or growth inhibition)
Procedure: Maize sprouts placed onto an agar layer in 24-well microtiter plates were treated with aqueous test solutions prepared from 10,000 ppm DMSO stock solutions by spraying. After drying, the plates were infested with L2 larvae (6 to 10 per well). The samples were assessed for mortality and growth inhibition in comparison to untreated samples 4 days after infestation.

[5] = test system: Euschistus heros (Neotropical Brown Stink Bug); experiment: Example B3: Euschistus heros, soybean leaves, N2 nymphs; settings: for percent effect (mortality or growth inhibition) at 200 ppm: Euschistus heros, 120 h, application rate of 200 ppm, N2 nymphs, 5 days after infestation, read-out: effect in at least one of the two categories (mortality or growth inhibition); for mortality at 50 ppm: Concentration 50 ppm, Euschistus heros (Example B3), read-out: Mortality (%)
Procedure: Soybean leaves on agar in 24-well microtiter plates were sprayed with aqueous test solutions prepared from 10,000 ppm DMSO stock solutions. After drying the leaves were infested with N2 nymphs. The samples were assessed for mortality and growth inhibition in comparison to untreated samples 5 days after infestation.

[6] = test system: Melodoigyne incognita; experiment: Example B14: Melodoigyne incognita juvenile mobility, in vitro profiling in 96 well plate; settings: 200 ppm; after 24 h; second stage juveniles; read-out: control (juvenile mobility)
Procedure: Test solutions are prepared from 10,000 ppm DMSO stock solutions with a TECAN robot to achieve 20 μL of 1000, 200, 100, 50, 25 and 12.5 ppm. For each concentration three replicates are produced. Per well, 80 μL nematode solution is added containing 100 to 150 freshly harvested second stage juveniles of Melodoigyne incognita. The plates are covered and stored at room temperature in the dark and incubated for 24 h. Mobility of the exposed juveniles in a treated well is measured using an imaging tool and compared to an average of 12 untreated replicates.

[7] = test system: Plutella xylostella (Diamond Back Moth); experiment: Example B7: Plutella xylostella, artificial diet, L2 larvae; settings: 120 h, application rate of 200 ppm, L2 larvae, 5 days after infestation, read-out: effect in at least one of the two categories (mortality or growth inhibition)
Procedure: 24-well microtiter plates with artificial diet were treated with aqueous test solutions prepared from 10,000 ppm DMSO stock solutions by pipetting. After drying, the plates were infested with L2 larvae (10 to 15 per well). The samples were assessed for mortality and growth inhibition in comparison to untreated samples 5 days after infestation.

[8] = test system: Spodoptera littoralis (Egyptian Cotton Leaf Worm); experiment: Example B9: Spodoptera littoralis, cotton leaf discs (mortality, anti-feeding, growth inhibition); settings: foliar, 72 h, application rate of 200 ppm, L1 larvae, 3 days after infestation, read-out: control (mortality, anti-feeding effect or growth inhibition)
Procedure: Cotton leaf discs were placed onto agar in 24-well microtiter plates and sprayed with aqueous test solutions prepared from 10,000 ppm DMSO stock solutions. After drying the leaf discs were infested with five L1 larvae. The samples were assessed for mortality, anti-feeding effect, and growth inhibition in comparison to untreated samples 3 days after infestation. Control of Spodoptera littoralis by a test sample is given when at least one of the categories mortality, anti-feedant effect, and growth inhibition is higher than the untreated sample.

[9] = test system: Tetranychus urticae (Two-Spotted Spider Mite); experiment: Example B10: Tetranychus urticae feeding/contact activity, bean leaf discs; settings: foliar, 192 h, application rate of 200 ppm, mixed population (mobile stages), 8 days after infestation
Procedure: Bean leaf discs on agar in 24-well microtiter plates were sprayed with aqueous test solutions prepared from 10,000 ppm DMSO stock solutions. After drying the leaf discs were infested with a mite population of mixed ages. The samples were assessed for mortality on mixed population (mobile stages) 8 days after infestation.

[10] = test system: Bemisia tabaci (Cotton White Fly); experiment: Example B1: Bemisia tabaci feeding/contact activity, cotton leaf discs; settings: foliar, 144 h, application rate of 200 ppm, adult white flies, 6 days after incubation
Procedure: Cotton leaf discs were placed on agar in 24-well microtiter plates and sprayed with aqueous test solutions prepared from 10,000 ppm DMSO stock solutions. After drying the leaf discs were infested with adult white flies. The samples were checked for mortality 6 days after incubation.

## CCS(=O)(=O)c1cc(NC(C)=O)cnc1-c1nc2cc(C(F)(F)F)ncc2n1C [P4, N-[5-ethylsulfonyl-6-[3-methyl-6-(trifluoromethyl)imidazo[4,5-c]pyridin-2-yl]-3-pyridyl]acetamide]
[1]
  mortality at 24 ppm: ≥ 80%
[2]
  mortality at 200 ppm: ≥ 80%
[3]
  mortality at 200 ppm: ≥ 80%
[4]; Concentration 200 ppm, Diabrotica balteata (Example B2), listed as drawing 154
  Mortality (%): 100%
[4]
  percent effect (mortality or growth inhibition) at 200 ppm: ≥ 80%
[5]
  percent effect (mortality or growth inhibition) at 200 ppm: ≥ 80%

## CCS(=O)(=O)c1cc(N(C)C(=O)C2CC2)cnc1-c1nc2cc(C(F)(F)F)ncc2n1C [P9, N-[5-ethylsulfonyl-6-[3-methyl-6-(trifluoromethyl)imidazo[4,5-c]pyridin-2-yl]-3-pyridyl]-N-methyl-cyclopropanecarboxamide]
[1]
  mortality at 24 ppm: ≥ 80%
[2]
  mortality at 200 ppm: ≥ 80%
[3]
  mortality at 200 ppm: ≥ 80%
[6]
  pest or weed control at 200 ppm: ≥ 80%
[4]
  percent effect (mortality or growth inhibition) at 200 ppm: ≥ 80%
[7]
  percent effect (mortality or growth inhibition) at 200 ppm: ≥ 80%
[8]
  percent control (mortality, anti-feedant effect or growth inhibition) at 200 ppm: ≥ 80%
[5]
  percent effect (mortality or growth inhibition) at 200 ppm: ≥ 80%

## CCS(=O)(=O)c1cc(N(C)C(=O)C(F)F)cnc1-c1nc2cc(C(F)(F)F)ncc2n1C [P13, N-[5-ethylsulfonyl-6-[3-methyl-6-(trifluoromethyl)imidazo[4,5-c]pyridin-2-yl]-3-pyridyl]-2,2-difluoro-N-methyl-acetamide]
[1]
  mortality at 24 ppm: ≥ 80%
[3]
  mortality at 200 ppm: ≥ 80%
[6]
  pest or weed control at 200 ppm: ≥ 80%
[4]
  percent effect (mortality or growth inhibition) at 200 ppm: ≥ 80%
[7]
  percent effect (mortality or growth inhibition) at 200 ppm: ≥ 80%
[8]
  percent control (mortality, anti-feedant effect or growth inhibition) at 200 ppm: ≥ 80%
[9]
  mortality at 200 ppm: ≥ 80%
[5]
  percent effect (mortality or growth inhibition) at 200 ppm: ≥ 80%

## CCS(=O)(=O)c1cc(N(C)C(=O)CSC)cnc1-c1nc2cc(C(F)(F)F)ncc2n1C [P14, N-[5-ethylsulfonyl-6-[3-methyl-6-(trifluoromethyl)imidazo[4,5-c]pyridin-2-yl]-3-pyridyl]-N-methyl-2-methylsulfanyl-acetamide]
[1]
  mortality at 24 ppm: ≥ 80%
[10]
  mortality at 200 ppm: ≥ 80%
[3]
  mortality at 200 ppm: ≥ 80%
[6]
  pest or weed control at 200 ppm: ≥ 80%
[4]
  percent effect (mortality or growth inhibition) at 200 ppm: ≥ 80%
[8]
  percent control (mortality, anti-feedant effect or growth inhibition) at 200 ppm: ≥ 80%
[5]
  percent effect (mortality or growth inhibition) at 200 ppm: ≥ 80%

## CCN(C(C)=O)c1cnc(-c2nc3cc(C(F)(F)F)ncc3n2C)c(S(=O)(=O)CC)c1 [P21, N-ethyl-N-[5-ethylsulfonyl-6-[3-methyl-6-(trifluoromethyl)imidazo[4,5-c]pyridin-2-yl]-3-pyridyl]acetamide]
[1]
  mortality at 1.5 ppm: 100%
  mortality at 24 ppm: ≥ 80%
[2]
  mortality at 200 ppm: ≥ 80%
[3]
  mortality at 200 ppm: ≥ 80%
  mortality at 12.5 ppm: 100%
[6]
  pest or weed control at 200 ppm: ≥ 80%
[4]
  percent effect (mortality or growth inhibition) at 200 ppm: ≥ 80%
[9]
  mortality at 200 ppm: ≥ 80%
[5]
  mortality at 50 ppm: 100%
  percent effect (mortality or growth inhibition) at 200 ppm: ≥ 80%

## CCC(=O)N(C)c1cnc(-c2nc3cc(C(F)(F)F)ncc3n2C)c(S(=O)(=O)CC)c1 [P23, N-[5-ethylsulfonyl-6-[3-methyl-6-(trifluoromethyl)imidazo[4,5-c]pyridin-2-yl]-3-pyridyl]-N-methyl-propanamide]
[1]
  mortality at 1.5 ppm: 100%
  mortality at 24 ppm: ≥ 80%
[3]
  mortality at 200 ppm: ≥ 80%
  mortality at 12.5 ppm: 90%
[6]
  pest or weed control at 200 ppm: ≥ 80%
[4]
  percent effect (mortality or growth inhibition) at 200 ppm: ≥ 80%
[7]
  percent effect (mortality or growth inhibition) at 200 ppm: ≥ 80%
[8]
  percent control (mortality, anti-feedant effect or growth inhibition) at 200 ppm: ≥ 80%
[9]
  mortality at 200 ppm: ≥ 80%
[5]
  mortality at 50 ppm: 100%
  percent effect (mortality or growth inhibition) at 200 ppm: ≥ 80%

## CCS(=O)(=O)c1cc(N(C)C(=O)C(C)C)cnc1-c1nc2cc(C(F)(F)F)ncc2n1C [P27, N-[5-ethylsulfonyl-6-[3-methyl-6-(trifluoromethyl)imidazo[4,5-c]pyridin-2-yl]-3-pyridyl]-N,2-dimethyl-propanamide]
[1]
  mortality at 24 ppm: ≥ 80%
[10]
  mortality at 200 ppm: ≥ 80%
[3]
  mortality at 200 ppm: ≥ 80%
[6]
  pest or weed control at 200 ppm: ≥ 80%
[7]
  percent effect (mortality or growth inhibition) at 200 ppm: ≥ 80%
[5]
  percent effect (mortality or growth inhibition) at 200 ppm: ≥ 80%

## CCS(=O)(=O)c1cc(N(C)C(=O)C2(C#N)CC2)cnc1-c1nc2cc(C(F)(F)F)ncc2n1C [P38, 1-cyano-N-[5-ethylsulfonyl-6-[3-methyl-6-(trifluoromethyl)imidazo[4,5-c]pyridin-2-yl]-3-pyridyl]-N-methyl-cyclopropanecarboxamide]
[1]
  mortality at 24 ppm: ≥ 80%
[3]
  mortality at 200 ppm: ≥ 80%
[6]
  pest or weed control at 200 ppm: ≥ 80%
[4]
  percent effect (mortality or growth inhibition) at 200 ppm: ≥ 80%
[7]
  percent effect (mortality or growth inhibition) at 200 ppm: ≥ 80%
[9]
  mortality at 200 ppm: ≥ 80%
[5]
  percent effect (mortality or growth inhibition) at 200 ppm: ≥ 80%

## CCS(=O)(=O)c1cc(N(C(C)=O)C2(C#N)CC2)cnc1-c1nc2cc(C(F)(F)F)ncc2n1C [P42, N-(1-cyanocyclopropyl)-N-[5-ethylsulfonyl-6-[3-methyl-6-(trifluoromethyl)imidazo[4,5-c]pyridin-2-yl]-3-pyridyl]acetamide]
[1]
  mortality at 24 ppm: ≥ 80%
[3]
  mortality at 200 ppm: ≥ 80%
[6]
  pest or weed control at 200 ppm: ≥ 80%
[7]
  percent effect (mortality or growth inhibition) at 200 ppm: ≥ 80%
[8]
  percent control (mortality, anti-feedant effect or growth inhibition) at 200 ppm: ≥ 80%
[9]
  mortality at 200 ppm: ≥ 80%
[5]
  percent effect (mortality or growth inhibition) at 200 ppm: ≥ 80%

## CCS(=O)(=O)c1cc(N(C)C(=O)C(C)(C)C#N)cnc1-c1nc2cc(C(F)(F)F)ncc2n1C [P43, 2-cyano-N-[5-ethylsulfonyl-6-[3-methyl-6-(trifluoromethyl)imidazo[4,5-c]pyridin-2-yl]-3-pyridyl]-N,2-dimethyl-propanamide]
[1]
  mortality at 24 ppm: ≥ 80%
[2]
  mortality at 200 ppm: ≥ 80%
[3]
  mortality at 200 ppm: ≥ 80%
[6]
  pest or weed control at 200 ppm: ≥ 80%
[4]
  percent effect (mortality or growth inhibition) at 200 ppm: ≥ 80%
[7]
  percent effect (mortality or growth inhibition) at 200 ppm: ≥ 80%
[8]
  percent control (mortality, anti-feedant effect or growth inhibition) at 200 ppm: ≥ 80%
[5]
  percent effect (mortality or growth inhibition) at 200 ppm: ≥ 80%

## CCS(=O)(=O)c1cc(N2CCSC2=O)cnc1-c1nc2cc(C(F)(F)F)ncc2n1C [P45, 3-[5-ethylsulfonyl-6-[3-methyl-6-(trifluoromethyl)imidazo[4,5-c]pyridin-2-yl]-3-pyridyl]thiazolidin-2-one]
[1]
  mortality at 1.5 ppm: 50%
  mortality at 24 ppm: ≥ 80%
[10]
  mortality at 200 ppm: ≥ 80%
[3]
  mortality at 200 ppm: ≥ 80%
  mortality at 12.5 ppm: 80%
[6]
  pest or weed control at 200 ppm: ≥ 80%
[4]
  percent effect (mortality or growth inhibition) at 200 ppm: ≥ 80%
[7]
  percent effect (mortality or growth inhibition) at 200 ppm: ≥ 80%
[8]
  percent control (mortality, anti-feedant effect or growth inhibition) at 200 ppm: ≥ 80%
[9]
  mortality at 200 ppm: ≥ 80%
[5]
  mortality at 50 ppm: 100%
  percent effect (mortality or growth inhibition) at 200 ppm: ≥ 80%

— patent US20210047291A1, “PESTICIDALLY ACTIVE HETEROCYCLIC DERIVATIVES WITH SULFUR CONTAINING SUBSTITUENTS” (SYNGENTA PARTICIPATIONS AG, priority 2018, published 2021)
